{"source": "patent US11083732B2", "about": "“Use of negative modulators of GABA receptors containing alpha5 subunits as fast acting antidepressants” (University of Maryland, Baltimore, priority 2014, dated 2021)", "key": {"[1]": {"system": "rats subjected to chronic restraint stress", "assay": "Social interaction test (SIT) after chronic restraint stress (CRS)", "assay_type": "in vivo, rat", "details": "10 days CRS; L-655,708 0.7 mg/kg i.p.; 24 hrs post-injection; vs baseline", "text": "MRK-016 rapidly reverses loss of sucrose preference and social interaction behaviors after chronic restraint stress (FIG. 9). […] This persisted for 7 days despite further stress exposure. and in the same animals after an additional week of CRS and 7 days after the injection of MRK-016.\n(§1) Chronic restraint stress (CRS). Male Sprague Dawley rats (4-5 weeks-old; Harlan Laboratories) were placed in appropriately sized restraint tubes, highly restricting their movement for periods of four hours in a brightly lit lab, every day for ten days during the light phase of their diurnal cycle (Lim et al., 2012).\nSocial interaction test (SIT). As described previously (Berton et al., 2006), rats were placed in a plastic enclosure (82×82 cm) with a 5×5 grid of squares (16.4×16.4 cm) visible underneath the clear plastic flooring. A small translucent perforated plastic box (20×16 cm) was placed against the center of one wall of the arena. During the testing conditions white overhead fluorescent lighting was used to illuminate the arena. A video camera positioned 170 cm above the floor of the arena was used to track the movements of the rats during the experiment.\nEach test consisted of a “target-absent” trial followed by a “target-present” trial. During testing, an individual test rat was placed in the center of the arena and, after 30s of adaptation, the rat's movements were recorded with the video camera for 2.5 minutes. […]\nResults were quantified as the percentage of time spent in the “interaction zone” (the five grid squares immediately surrounding the plastic cage) as measured for both the “target-absent” and “target-present” trials. […]\n(§2) Several hedonic behaviors in rodents are sensitive to chronic stress and are restored by chronic, but not acute, administration of SSRIs, providing one means to screen for potential antidepressant compounds. First, it was determined whether L-655,708 would rapidly (<24 hrs) restore normal hedonic behavior following chronic restraint stress (Watanabe et al., 1992; Lim et al., 2012), consistent with the rapid antidepressant-like actions of ketamine (Li et al., 2011). […]"}, "[2]": {"system": "str. pyramidale of area CA1 and NAc shell", "assay": "In vivo field potential recording of oscillatory activity", "parameters": "species or system rat", "procedure": "A1. A 60 min period of continuous recording of spontaneous field potential activity is made under dim illumination. Rats are then injected with either L-665,708 or vehicle, and placed back in the tube for an additional 60-90 min of recording. Discrete fast Fourier transforms are made on 60s-long recording segments for preparation of spectrograms. Oscillation power (area under the curve) is integrated for different frequency bandwidths for power spectral density plots (Θ=3-7 Hz; α=8-12 Hz; β=13-29 Hz; γ=30-80 Hz) (Buhl et al., 1998; Raver et al., 2013). Just as with ketamine (e.g. Kittleberger et al., 2012; Lazarewicz et al., 2010; Hinman et al., 2013), in specific embodiments increases in power are observed by pairwise comparison of spectra before and after drug injection. Initial studies are consistent with this consideration (FIG. 2).\nElectrophysiology in vivo. Tungsten microelectrodes (tip impedances=0.5M,Ω) are implanted stereotaxically in str. pyramidale of area CA 1, layer II of the EC, layer V of the medial PFC, or the shell of the NAc and secured to the skull with cement. After implantation, rats will be habituated to stay still under light restraint (a metal pole connecting the headstage to a rigid arm) in a narrow tube. On-going electrical activity will be recorded in the absence of anesthesia. Field potentials will be analyzed using Spike2 software."}, "[3]": {"system": "chronically stressed rats", "assay": "Reversal of chronic stress-induced behavioral changes (SPT and SIT; CRS and CUS) overall", "assay_type": "in vivo, rat", "text": "as §1\nChronic unpredictable stress (CUS). Male Sprague-Dawley rats (4-5 weeks-old; Harlan Laboratories) were randomly divided into control and CUS groups. Rats in the CUS group were individually housed. CUS animals were treated with two mild stressors every day for 5-6 weeks during their light phase (Willner et al., 1987). The stressors were randomly cycled to enhance unpredictability. […]\nSucrose preference test (SPT). […] Sucrose preference was calculated as amount of the sucrose solution consumed as a percentage of the total amount of liquid consumed. […]\nas §2"}, "[4]": {"target": "GABAARs containing the alpha5 subunit (Homo sapiens, UniProt P18507+P31644)", "sequence (P31644 32-462)": "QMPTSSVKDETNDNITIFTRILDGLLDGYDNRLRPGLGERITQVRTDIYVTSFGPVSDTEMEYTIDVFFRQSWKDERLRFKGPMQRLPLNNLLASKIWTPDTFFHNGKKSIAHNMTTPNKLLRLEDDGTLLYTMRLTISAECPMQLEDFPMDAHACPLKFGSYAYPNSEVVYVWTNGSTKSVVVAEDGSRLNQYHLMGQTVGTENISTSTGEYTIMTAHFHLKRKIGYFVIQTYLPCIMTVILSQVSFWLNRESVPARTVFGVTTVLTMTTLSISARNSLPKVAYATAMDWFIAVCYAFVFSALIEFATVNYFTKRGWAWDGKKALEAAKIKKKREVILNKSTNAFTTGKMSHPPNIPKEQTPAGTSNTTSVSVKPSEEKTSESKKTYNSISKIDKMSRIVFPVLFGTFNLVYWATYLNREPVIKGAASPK", "sequence (P18507 40-475)": "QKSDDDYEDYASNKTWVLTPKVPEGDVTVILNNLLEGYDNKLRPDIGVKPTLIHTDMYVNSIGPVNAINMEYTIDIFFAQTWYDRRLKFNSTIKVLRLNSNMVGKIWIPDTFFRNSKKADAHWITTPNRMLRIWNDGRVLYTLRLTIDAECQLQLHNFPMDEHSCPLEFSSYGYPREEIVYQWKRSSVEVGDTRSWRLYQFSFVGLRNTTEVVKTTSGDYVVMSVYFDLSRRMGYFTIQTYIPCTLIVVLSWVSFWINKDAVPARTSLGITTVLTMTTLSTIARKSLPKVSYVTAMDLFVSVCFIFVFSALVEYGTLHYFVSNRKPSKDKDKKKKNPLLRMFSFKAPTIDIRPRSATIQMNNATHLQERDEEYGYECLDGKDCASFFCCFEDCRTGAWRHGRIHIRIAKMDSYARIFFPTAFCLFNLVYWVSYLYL", "sequence (P28472 26-473 partner)": "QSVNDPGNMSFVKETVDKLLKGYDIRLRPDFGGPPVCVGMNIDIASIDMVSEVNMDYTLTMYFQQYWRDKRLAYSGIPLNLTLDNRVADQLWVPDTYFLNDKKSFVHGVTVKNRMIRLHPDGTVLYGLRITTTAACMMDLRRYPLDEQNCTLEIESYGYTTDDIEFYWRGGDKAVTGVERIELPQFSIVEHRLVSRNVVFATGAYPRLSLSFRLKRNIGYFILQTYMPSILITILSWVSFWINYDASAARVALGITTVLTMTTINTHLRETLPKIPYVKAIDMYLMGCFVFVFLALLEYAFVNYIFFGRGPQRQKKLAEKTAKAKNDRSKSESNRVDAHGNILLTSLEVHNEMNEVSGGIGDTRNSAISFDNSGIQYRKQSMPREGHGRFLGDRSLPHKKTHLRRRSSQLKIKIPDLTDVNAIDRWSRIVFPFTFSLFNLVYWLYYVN", "details": "Atack et al., 2005; 2006; cited from earlier work"}}}
{"smiles": "CCOC(=O)c1ncn2c1[C@@H]1CCCN1C(=O)c1cc(OC)ccc1-2", "note": "[L-655,708, ethyl (13aS)-7-methoxy-9-oxo-11, 12,13,13 a-terahydro-9H-imidazo[1,5-a]pyrrolo[2,1-c] [1,4]benzodiazepine-1-carboxylate]", "values": [{"measurement": "social interaction ratio", "setting": "[1]", "result": "not significantly different than baseline"}, {"measurement": "persistence of increase in oscillatory activity", "setting": "[2]; CA1 and NAc shell", "result": "persisted for more than one hour"}, {"measurement": "oscillatory activity (theta and beta frequency bands)", "setting": "[2]; str. pyramidale of area CA1 and NAc shell, after injection", "result": "rapid increase"}, {"measurement": "time to reversal of chronic stress-induced depressive-like behavioral changes", "setting": "[3]; CRS and CUS, 0.7 mg/kg i.p., model-independent", "result": "less than 24 hrs"}, {"measurement": "time to reversal of loss of sucrose preference and decrease in social interaction", "setting": "[3]; single injection, l mg/kg intraperitoneally, CUS and CRS", "result": "≤ 24", "unit": "h"}, {"measurement": "selectivity for GABAARs containing the alpha5 subunit", "setting": "[4]", "result": "10-100 fold"}]}
